Source: patent US20230079045A1 (priority 2019, published 2023)

What was measured:
Assay type in all cases: cell-based, influenza virus
IFVA/Mal/302/54 = experiment: cytopathic effect (CPE) antiviral test in MDCK cells, IFVA/Mal/302/54; conditions: unidentified influenza virus, MDCK, 120 h, read-out: EC50(IFVA/Mal/302/54), MDCK cells, CPE method, CCK-8 cell viability, 5 days
IFV A/PR/8/34 = experiment: cytopathic effect (CPE) antiviral test in MDCK cells, IFV A/PR/8/34; conditions: unidentified influenza virus, PR/8, MDCK, 120 h, read-out: EC50(IFV A/PR/8/34)
IFVA/Weiss/43 = experiment: cytopathic effect (CPE) antiviral test in MDCK cells, IFVA/Weiss/43; conditions: unidentified influenza virus, MDCK, 120 h, read-out: EC50(IFVA/Weiss/43), MDCK cells, CPE method, CCK-8 cell viability, 5 days

Row | SMILES | EC50 (IFVA/Mal/302/54) [nM] | EC50 (IFV A/PR/8/34) [nM] | EC50 (IFVA/Weiss/43) [nM]
1 | O=C(Nc1ccc2nc(-c3ccnc(C(=O)N4CCN(C(c5ccccc5)c5nnn(C(F)F)n5)CC4)c3)oc2c1)[C@@H]1CC1(F)F (mixture of isomers) [Compound 103, (S)—N-(2-(2-(4-((R/S)-(2-(difluoromethyl)-2H-tetrazol-5-yl)(phenyl)methyl)piperazine-1-carbonyl)pyridin-4-yl)benzo[d]oxazol-6-yl)-2,2-difluorocyclopropane-1-carboxamide] | 17 | 26 | 7
2 | O=C(Nc1ccc2oc(-c3ccnc(C(=O)N4CCN(C(c5ccccc5)c5nnn(C(F)F)n5)CC4)c3)cc2c1)[C@@H]1C[C@@H]1F (mixture of isomers) [Compound 111, (1S,2S)—N-(2-(2-(4-((R/S)-(2-(difluoromethyl)-2H-tetrazol-5-yl)(phenyl)methyl)piperazine-1-carbonyl)pyridin-4-yl)benzofuran-5-yl)-2-fluorocyclopropane-1-carboxamide] | 2 | 2 | 0.5
3 | Cc1nnn(C(c2ccccc2)C2CCN(C(=O)c3cc(-c4nc5cc(NC(=O)[C@@H]6C[C@@H]6F)ccc5o4)ccn3)CC2)n1 (mixture of isomers) [Compound 120, (1S,2S)-2-fluoro-N-(2-(2-(4-((R/S)-(5-methyl-2H-tetrazol-2-yl)(phenyl)methyl)piperidine-1-carbonyl)pyridin-4-yl)benzo[d]oxazol-5-yl)cyclopropanecarboxamide] | 14 | 12 | 3
4 | CC(=O)Nc1ccc2oc(-c3ccnc(C(=O)C4CCN(C(c5ccccc5)c5nnn(C(F)F)n5)CC4)c3)nc2c1 (racemic) [Compound 42, (R/S)—N-(2-(2-(1-((2-(difluoromethyl)-2H-tetrazol-5-yl)(phenyl)methyl)piperidine-4-carbonyl)pyridin-4-yl)benzo[d]oxazol-5-yl)acetamide] | 10 | 20 | 20
5 | Cn1nnc(C(c2ccccc2)N2CCN(C(=O)c3cc(-c4nc5cc(N6CCCC6=O)ccc5o4)ccn3)CC2)n1 (racemic) [Compound 45, (R/S)-1-(2-(2-(4-((2-methyl-2H-tetrazol-5-yl)(phenyl)methyl)piperazine-1-carbonyl)pyridin-4-yl)benzo[d]oxazol-5-yl)pyrrolidin-2-one] | 12 | 27 | 15
6 | O=C(Nc1ccc2oc(-c3ccnc(C(=O)N4CCN(C(c5ccccc5)c5nnn(C(F)F)n5)CC4)c3)nc2c1)C1CCC1 (racemic) [Compound 67, (R/S)—N-(2-(2-(4-((2-(difluoromethyl)-2H-tetrazol-5-yl)(phenyl)methyl)piperazine-1-carbonyl)pyridin-4-yl)benzo[d]oxazol-5-yl)cyclobutanecarboxamide] | 21 | 17 | 12
7 | O=C(c1cc(-c2nc3cc(-c4cnsc4)ccc3o2)ccn1)N1CCN(C(c2ccccc2)c2nnn(C(F)F)n2)CC1 (racemic) [Compound 101, (R/S)-(4-((2-(difluoromethyl)-2H-tetrazol-5-yl)(phenyl)methyl)piperazin-1-yl)(4-(5-(isothiazol-4-yl)benzo[d]oxazol-2-yl)pyridin-2-yl)methanone] | 6 | 27 | 4
8 | O=C(Nc1ccc2nc(-c3ccnc(C(=O)N4CCN(C(c5ccccc5)c5nnn(C(F)F)n5)CC4)c3)oc2c1)C1CC1 (racemic) [Compound 104, (R/S)—N-(2-(2-(4-((2-(difluoromethyl)-2H-tetrazol-5-yl)(phenyl)methyl)piperazine-1-carbonyl)pyridin-4-yl)benzo[d]oxazol-6-yl)cyclopropanecarboxamide] | 16 | 59 | 12
9 | Cn1cc(-c2ccc3oc(-c4ccnc(C(=O)N5CCN(C(c6ccccc6)c6nnn(C(F)F)n6)CC5)c4)nc3c2)cn1 (racemic) [Compound 105, (R/S)-(4-((2-(difluoromethyl)-2H-tetrazol-5-yl)(phenyl)methyl)piperazin-1-yl)(4-(5-(1-methyl-1H-pyrazol-4-yl)benzo[d]oxazol-2-yl)pyridin-2-yl)methanone] | 9 | 11 | 7
10 | Cn1nnc(C(c2ccccc2)N2CCN(C(=O)c3cc(-c4nc5cc(OC(F)F)ccc5o4)ccn3)CC2)n1 (stereo not shown) [Compound 44, (4-(5-(difluoromethoxy)benzo[d]oxazol-2-yl)pyridin-2-yl)(4-((2-methyl-2H-tetrazol-5-yl)(phenyl)methyl)piperazin-1-yl)methanone] | 65 |  | 110
11 | CC(=O)Nc1ccc2oc(-c3ccnc(C(=O)N4CCC(O)(C(c5ccccc5)c5nnn(C)n5)CC4)c3)nc2c1 (stereo not shown) [Compound 47, N-(2-(2-(4-hydroxy-4-((2-methyl-2H-tetrazol-5-yl)(phenyl)methyl)piperidine-1-carbonyl)pyridin-4-yl)benzo[d]oxazol-5-yl)acetamide] | 81 |  | 35
12 | CC(=O)Nc1ccc2oc(-c3ccnc(C(=O)N4CCC(=C(c5ccccc5)c5nnn(C)n5)CC4)c3)nc2c1 [Compound 49, N-(2-(2-(4-((2-methyl-2H-tetrazol-5-yl)(phenyl)methylene)piperidine-1-carbonyl)pyridin-4-yl)benzo[d]oxazol-5-yl)acetamide] | 180 |  | 112
13 | Cn1nnc(C(c2ccccc2)N2CCN(C(=O)c3cc(-c4nc5cc(N6CCOC6=O)ccc5o4)ccn3)CC2)n1 (stereo not shown) [Compound 50, 3-(2-(2-(4-((2-methyl-2H-tetrazol-5-yl)(phenyl)methyl)piperazine-1-carbonyl)pyridin-4-yl)benzo[d]oxazol-5-yl)oxazolidin-2-one] | 120 |  | 242
14 | COC(=O)Nc1ccc2oc(-c3ccnc(C(=O)N4CCN(C(c5ccccc5)c5nnn(C)n5)CC4)c3)nc2c1 (stereo not shown) [Compound 51, Methyl (2-(2-(4-((2-methyl-2H-tetrazol-5-yl)(phenyl)methyl)piperazine-1-carbonyl)pyridin-4-yl)benzo[d]oxazol-5-yl)carbamate] | 34 |  | 84
15 | CC(=O)Nc1ccc2oc(-c3ccnc(C(=O)N4CCN(C(c5ccccc5)c5nnn(C(F)F)n5)CC4)c3F)nc2c1 (stereo not shown) [Compound 56, N-(2-(2-(4-((2-(difluoromethyl)-2H-tetrazol-5-yl)(phenyl)methyl)piperazine-1-carbonyl)-3-fluoropyridin-4-yl)benzo[d]oxazol-5-yl)acetamide] | 33 |  | 17
16 | CC(=O)Nc1cc2nc(-c3ccnc(C(=O)N4CCN(C(c5ccccc5)c5nnn(C(F)F)n5)CC4)c3)oc2cc1F (stereo not shown) [Compound 59, N-(2-(2-(4-((2-(difluoromethyl)-2H-tetrazol-5-yl)(phenyl)methyl)piperazine-1-carbonyl)pyridin-4-yl)-6-fluorobenzo[d]oxazol-5-yl)acetamide] | 58 |  | 56
17 | CC(=O)Nc1ccc2nn(-c3ccnc(C(=O)N4CCN(C(c5ccccc5)c5nnn(C(F)F)n5)CC4)c3)cc2c1 (stereo not shown) [Compound 60, N-(2-(2-(4-((2-(difluoromethyl)-2H-tetrazol-5-yl)(phenyl)methyl)piperazine-1-carbonyl)pyridin-4-yl)-2H-indazol-5-yl)acetamide] | 84 |  | 54
18 | CC(=O)Nc1cc(F)c2oc(-c3ccnc(C(=O)N4CCN(C(c5ccccc5)c5nnn(C(F)F)n5)CC4)c3)nc2c1 (stereo not shown) [Compound 61, N-(2-(2-(4-((2-(difluoromethyl)-2H-tetrazol-5-yl)(phenyl)methyl)piperazine-1-carbonyl)pyridin-4-yl)-7-fluorobenzo[d]oxazol-5-yl)acetamide] | 78 |  | 28
19 | CC(=O)Nc1ccc2nc(-c3ccnc(C(=O)N4CCN(C(c5ccccc5)c5nnn(C(F)F)n5)CC4)c3)oc2c1 (stereo not shown) [Compound 70, N-(2-(2-(4-((2-(difluoromethyl)-2H-tetrazol-5-yl)(phenyl)methyl)piperazine-1-carbonyl)pyridin-4-yl)benzo[d]oxazol-6-yl)acetamide] | 32 |  | 32
20 | O=C(c1cc(-c2nc3cc(N4CCCC4)ccc3o2)ccn1)N1CCN(C(c2ccccc2)c2nnn(C(F)F)n2)CC1 (stereo not shown) [Compound 71, (4-((2-(difluoromethyl)-2H-tetrazol-5-yl)(phenyl)methyl)piperazin-1-yl)(4-(5-(pyrrolidin-1-yl)benzo[d]oxazol-2-yl)pyridin-2-yl)methanone] | 52 |  | 31
21 | O=C(Nc1ccc2oc(-c3ccnc(C(=O)N4C5CCC4CN(C(c4ccccc4)c4nnn(C(F)F)n4)C5)c3)nc2c1)C1CC1 (stereo not shown) [Compound 175, N-(2-(2-(3-((2-(difluoromethyl)-2H-tetrazol-5-yl)(phenyl)methyl)-3,8-diazabicyclo[3.2.1]octane-8-carbonyl)pyridin-4-yl)benzo[d]oxazol-5-yl)cyclopropanecarboxamide] | 21 |  | 13
22 | O=C1CCCN1c1ccc2oc(-c3ccnc(C(=O)N4C5CCC4CN(C(c4ccccc4)c4nnn(C(F)F)n4)C5)c3)nc2c1 (stereo not shown) [Compound 176, 1-(2-(2-(3-((2-(difluoromethyl)-2H-tetrazol-5-yl)(phenyl)methyl)-3,8-diazabicyclo[3.2.1]octane-8-carbonyl)pyridin-4-yl)benzo[d]oxazol-5-yl)pyrrolidin-2-one] | 21 |  | 33
23 | Cn1nnc(C(c2ccccc2)N2CCN(C(=O)c3cc(-c4nc5cc(NC(=O)C6(F)CC6)ccc5o4)ccn3)CC2)n1 (stereo not shown) [Compound 194, 1-fluoro-N-(2-(2-(4-((2-methyl-2H-tetrazol-5-yl)(phenyl)methyl)piperazine-1-carbonyl)pyridin-4-yl)benzo[d]oxazol-5-yl)cyclopropane-1-carboxamide] | 25 |  | 24
